In patent US8143288B2, “Inhibitors of HCV replication” (priority 2005, dated 2012):

System: HCV 1b-377-neo replicon cells
Assay: HCV replicon FRET assay
Assay type: cell-based
Conditions: Hepatitis C virus; HCV replicon; read-out: Activity (EC50)

## O=C(c1ccccc1)c1cccnc1C(=O)N1CCC[C@H]1C(=O)Nc1ccc(/C=C/c2ccc(NC(=O)[C@@H]3CCCN3C(=O)c3ncccc3C(=O)c3ccccc3)cc2)cc1 [Example 174]
  EC50: 100 to 1000 nM

## CCCc1c(C(=O)N2CCC[C@H]2C(=O)Nc2ccc(/C=C/c3ccc(NC(=O)[C@@H]4CCCN4C(=O)c4cnn(-c5ccccc5)c4CCC)cc3)cc2)cnn1-c1ccccc1 [Example 175]
  EC50: 1000 to 10000 nM

## O=C(Nc1ccc(/C=C/c2ccc(NC(=O)[C@@H]3CCCN3C(=O)c3ccccn3)cc2)cc1)[C@@H]1CCCN1C(=O)c1ccccn1 [Example 176]
  EC50: 1000 to 10000 nM

## Cc1cccnc1C(=O)N1CCC[C@H]1C(=O)Nc1ccc(/C=C/c2ccc(NC(=O)[C@@H]3CCCN3C(=O)c3ncccc3C)cc2)cc1 [Example 177]
  EC50: 1000 to 10000 nM

## O=C(Nc1ccc(/C=C/c2ccc(NC(=O)[C@@H]3CCCN3C(=O)c3cnccn3)cc2)cc1)[C@@H]1CCCN1C(=O)c1cnccn1 [Example 178]
  EC50: 1000 to 10000 nM

## O=C(Nc1ccc(/C=C/c2ccc(NC(=O)[C@@H]3CCCN3C(=O)c3nccn3Cc3ccccc3)cc2)cc1)[C@@H]1CCCN1C(=O)c1nccn1Cc1ccccc1 [Example 179]
  EC50: 1000 to 10000 nM

## O=C(Nc1ccc(/C=C/c2ccc(NC(=O)[C@@H]3CCCN3C(=O)c3nc4ccccc4[nH]3)cc2)cc1)[C@@H]1CCCN1C(=O)c1nc2ccccc2[nH]1 [Example 180]
  EC50: 1000 to 10000 nM

## O=C(Nc1ccc(/C=C/c2ccc(NC(=O)[C@@H]3CCCN3C(=O)Cc3cccc4ccccc34)cc2)cc1)[C@@H]1CCCN1C(=O)Cc1cccc2ccccc12 [Example 181]
  EC50: 100 to 1000 nM

## O=C(Nc1ccc(/C=C/c2ccc(NC(=O)[C@@H]3CCCN3C(=O)c3ncccc3OCc3ccccc3)cc2)cc1)[C@@H]1CCCN1C(=O)c1ncccc1OCc1ccccc1 [Example 183]
  EC50: 1000 to 10000 nM

## O=C(Nc1ccc(/C=C/c2ccc(NC(=O)[C@@H]3CCCN3C(=O)c3ncoc3-c3ccccc3)cc2)cc1)[C@@H]1CCCN1C(=O)c1ncoc1-c1ccccc1 [Example 184]
  EC50: 100 to 1000 nM

## Cc1nc(-c2cccnc2)sc1C(=O)N1CCC[C@H]1C(=O)Nc1ccc(/C=C/c2ccc(NC(=O)[C@@H]3CCCN3C(=O)c3sc(-c4cccnc4)nc3C)cc2)cc1 [Example 185]
  EC50: 1000 to 10000 nM

## CC(C)c1sc(Cl)nc1C(=O)N1CCC[C@H]1C(=O)Nc1ccc(/C=C/c2ccc(NC(=O)[C@@H]3CCCN3C(=O)c3nc(Cl)sc3C(C)C)cc2)cc1 [Example 186]
  EC50: 100 to 1000 nM

## Cc1nc2ccccn2c1C(=O)N1CCC[C@H]1C(=O)Nc1ccc(/C=C/c2ccc(NC(=O)[C@@H]3CCCN3C(=O)c3c(C)nc4ccccn34)cc2)cc1 [Example 187]
  EC50: 0.1 to 90 nM

## CCc1ccnc(C(=O)N2CCC[C@H]2C(=O)Nc2ccc(/C=C/c3ccc(NC(=O)[C@@H]4CCCN4C(=O)c4cc(CC)ccn4)cc3)cc2)c1 [Example 188]
  EC50: 100 to 1000 nM

## COC(=O)N1c2ccccc2C[C@H]1C(=O)N1CCC[C@H]1C(=O)Nc1ccc(/C=C/c2ccc(NC(=O)[C@@H]3CCCN3C(=O)[C@@H]3Cc4ccccc4N3C(=O)OC)cc2)cc1 [Example 189]
  EC50: 1000 to 10000 nM

## CC(C)c1scnc1C(=O)N1CCC[C@H]1C(=O)Nc1ccc(/C=C/c2ccc(NC(=O)[C@@H]3CCCN3C(=O)c3ncsc3C(C)C)cc2)cc1 [Example 190]
  EC50: 100 to 1000 nM

## O=C(Nc1ccc(/C=C/c2ccc(NC(=O)[C@@H]3CCCN3C(=O)c3cccnc3Cl)cc2)cc1)[C@@H]1CCCN1C(=O)c1cccnc1Cl [Example 191]
  EC50: 1000 to 10000 nM

## CSc1ncccc1C(=O)N1CCC[C@H]1C(=O)Nc1ccc(/C=C/c2ccc(NC(=O)[C@@H]3CCCN3C(=O)c3cccnc3SC)cc2)cc1 [Example 192]
  EC50: 100 to 1000 nM

## COc1ccc(C(=O)N2CCC[C@H]2C(=O)Nc2ccc(/C=C/c3ccc(NC(=O)[C@@H]4CCCN4C(=O)c4ccc(OC)nc4OC)cc3)cc2)c(OC)n1 [Example 193]
  EC50: 1000 to 10000 nM

## Cc1nc(C(F)(F)F)ccc1C(=O)N1CCC[C@H]1C(=O)Nc1ccc(/C=C/c2ccc(NC(=O)[C@@H]3CCCN3C(=O)c3ccc(C(F)(F)F)nc3C)cc2)cc1 [Example 194]
  EC50: 100 to 1000 nM

## O=C(Nc1ccc(/C=C/c2ccc(NC(=O)[C@@H]3CCCN3C(=O)c3ccc(C(F)(F)F)nc3Cl)cc2)cc1)[C@@H]1CCCN1C(=O)c1ccc(C(F)(F)F)nc1Cl [Example 195]
  EC50: 1000 to 10000 nM

## O=C(Nc1ccc(/C=C/c2ccc(NC(=O)[C@@H]3CCCN3C(=O)c3cccnc3Sc3ccccc3)cc2)cc1)[C@@H]1CCCN1C(=O)c1cccnc1Sc1ccccc1 [Example 196]
  EC50: 1000 to 10000 nM

## CCc1ccncc1C(=O)N1CCC[C@H]1C(=O)Nc1ccc(/C=C/c2ccc(NC(=O)[C@@H]3CCCN3C(=O)c3cnccc3CC)cc2)cc1 [Example 197]
  EC50: 100 to 1000 nM

## Cc1ccsc1C(=O)N1CCC[C@H]1C(=O)Nc1ccc(/C=C/c2ccc(NC(=O)[C@@H]3CCCN3C(=O)c3sccc3C)cc2)cc1 [Example 198]
  EC50: 100 to 1000 nM

## Cc1nnsc1C(=O)N1CCC[C@H]1C(=O)Nc1ccc(/C=C/c2ccc(NC(=O)[C@@H]3CCCN3C(=O)c3snnc3C)cc2)cc1 [Example 199]
  EC50: 0.1 to 90 nM

## Cc1ccoc1C(=O)N1CCC[C@H]1C(=O)Nc1ccc(/C=C/c2ccc(NC(=O)[C@@H]3CCCN3C(=O)c3occc3C)cc2)cc1 [Example 200]
  EC50: 100 to 1000 nM

## Cc1nocc1C(=O)N1CCC[C@H]1C(=O)Nc1ccc(/C=C/c2ccc(NC(=O)[C@@H]3CCCN3C(=O)c3conc3C)cc2)cc1 [Example 201]
  EC50: 0.1 to 90 nM

## Cc1noc(C)c1C(=O)N1CCC[C@H]1C(=O)Nc1ccc(/C=C/c2ccc(NC(=O)[C@@H]3CCCN3C(=O)c3c(C)noc3C)cc2)cc1 [Example 202]
  EC50: 100 to 1000 nM

## Cc1nc(C)c(C(=O)N2CCC[C@H]2C(=O)Nc2ccc(/C=C/c3ccc(NC(=O)[C@@H]4CCCN4C(=O)c4sc(C)nc4C)cc3)cc2)s1 [Example 203]
  EC50: 100 to 1000 nM

## Cc1onc(-c2ccccc2)c1C(=O)N1CCC[C@H]1C(=O)Nc1ccc(/C=C/c2ccc(NC(=O)[C@@H]3CCCN3C(=O)c3c(-c4ccccc4)noc3C)cc2)cc1 [Example 204]
  EC50: 0.1 to 90 nM

## CCc1cccc(CC)c1C(=O)N1CCC[C@H]1C(=O)Nc1ccc(/C=C/c2ccc(NC(=O)[C@@H]3CCCN3C(=O)c3c(CC)cccc3CC)cc2)cc1 [Example 205]
  EC50: 1000 to 10000 nM

## CCc1cccc(C)c1C(=O)N1CCC[C@H]1C(=O)Nc1ccc(/C=C/c2ccc(NC(=O)[C@@H]3CCCN3C(=O)c3c(C)cccc3CC)cc2)cc1 [Example 206]
  EC50: 1000 to 10000 nM

## Cn1cc(C(=O)N2CCC[C@H]2C(=O)Nc2ccc(/C=C/c3ccc(NC(=O)[C@@H]4CCCN4C(=O)c4cn(C)c5ccccc45)cc3)cc2)c2ccccc21 [Example 207]
  EC50: 100 to 1000 nM

## CC(C)(C)OC(=O)n1cc(C(=O)N2CCC[C@H]2C(=O)Nc2ccc(/C=C/c3ccc(NC(=O)[C@@H]4CCCN4C(=O)c4cn(C(=O)OC(C)(C)C)c5ccccc45)cc3)cc2)c2ccccc21 [Example 208]
  EC50: 1000 to 10000 nM

## O=C(Nc1ccc(/C=C/c2ccc(NC(=O)[C@@H]3CCCN3C(=O)c3c[nH]c4ccccc34)cc2)cc1)[C@@H]1CCCN1C(=O)c1c[nH]c2ccccc12 [Example 209]
  EC50: 100 to 1000 nM

## O=C(Nc1ccc(/C=C/c2ccc(NC(=O)[C@@H]3CCCN3C(=O)c3c[nH]cn3)cc2)cc1)[C@@H]1CCCN1C(=O)c1c[nH]cn1 [Example 210]
  EC50: 1000 to 10000 nM

## Cn1cncc1C(=O)N1CCC[C@H]1C(=O)Nc1ccc(/C=C/c2ccc(NC(=O)[C@@H]3CCCN3C(=O)c3cncn3C)cc2)cc1 [Example 211]
  EC50: 0.1 to 90 nM

## O=C(Nc1ccc(/C=C/c2ccc(NC(=O)[C@@H]3CCCN3C(=O)c3n[nH]c4ccccc34)cc2)cc1)[C@@H]1CCCN1C(=O)c1n[nH]c2ccccc12 [Example 212]
  EC50: 0.1 to 90 nM

## Cc1cccc(-n2cnc(C(=O)N3CCC[C@H]3C(=O)Nc3ccc(/C=C/c4ccc(NC(=O)[C@@H]5CCCN5C(=O)c5cn(-c6cccc(C)n6)cn5)cc4)cc3)c2)n1 [Example 213]
  EC50: 1000 to 10000 nM

## Cc1nc2sccn2c1C(=O)N1CCC[C@H]1C(=O)Nc1ccc(/C=C/c2ccc(NC(=O)[C@@H]3CCCN3C(=O)c3c(C)nc4sccn34)cc2)cc1 [Example 214]
  EC50: 0.1 to 90 nM

## O=C(Nc1ccc(/C=C/c2ccc(NC(=O)[C@@H]3C=CCN3C(=O)Cc3ccccn3)cc2)cc1)[C@@H]1C=CCN1C(=O)Cc1ccccn1 [Example 215]
  EC50: 0.1 to 90 nM

## CC(=O)N1CC=C[C@H]1C(=O)Nc1ccc(/C=C/c2ccc(NC(=O)[C@@H]3C=CCN3C(=O)Cc3ccccn3)cc2)cc1 [Example 216]
  EC50: 0.1 to 90 nM

## CC(=O)N1CC=C[C@H]1C(=O)Nc1ccc(/C=C/c2ccc(NC(=O)[C@@H]3C=CCN3C(C)=O)cc2)cc1 [Example 217]
  EC50: 0.1 to 90 nM

## O=C(Nc1ccc(/C=C/c2ccc(NC(=O)[C@@H]3C=CCN3C(=O)Cc3cccnc3)cc2)cc1)[C@@H]1C=CCN1C(=O)Cc1cccnc1 [Example 218]
  EC50: 0.1 to 90 nM

## CC(=O)N1CC=C[C@H]1C(=O)Nc1ccc(/C=C/c2ccc(NC(=O)[C@@H]3C=CCN3C(=O)Cc3cccnc3)cc2)cc1 [Example 219]
  EC50: 0.1 to 90 nM

## CC(=O)N1CC=C[C@H]1C(=O)Nc1ccc(/C=C/c2ccc(NC(=O)[C@@H]3C=CCN3C(=O)Cc3ccncc3)cc2)cc1 [Example 220]
  EC50: 1000 to 10000 nM

## O=C(Nc1ccc(/C=C/c2ccc(NC(=O)[C@@H]3C=CCN3C(=O)Cc3ccncc3)cc2)cc1)[C@@H]1C=CCN1C(=O)Cc1ccncc1 [Example 221]
  EC50: 100 to 1000 nM

## CN(C)[C@H]1C[C@@H](C(=O)Nc2ccc(/C=C/c3ccc(NC(=O)[C@@H]4C[C@H](N(C)C)CN4C(=O)OCc4ccccc4)cc3)cc2)N(C(=O)OCc2ccccc2)C1 [Example 223]
  EC50: 0.1 to 90 nM

## CCCOc1ccccc1C(=O)N1C[C@@H](N(C)C)C[C@H]1C(=O)Nc1ccc(CCc2ccc(NC(=O)[C@@H]3C[C@H](N(C)C)CN3C(=O)c3ccccc3OCCC)cc2)cc1 [Example 224]
  EC50: 1000 to 10000 nM

## CN(C)[C@H]1C[C@@H](C(=O)Nc2ccc(/C=C/c3ccc(NC(=O)[C@@H]4C[C@H](N(C)C)CN4C(=O)Cc4ccccc4)cc3)cc2)N(C(=O)Cc2ccccc2)C1 [Example 225]
  EC50: 0.1 to 90 nM

## CN(C)[C@H]1C[C@@H](C(=O)Nc2ccc(/C=C/c3ccc(NC(=O)[C@@H]4C[C@H](N(C)C)CN4C(=O)[C@H]4CCCO4)cc3)cc2)N(C(=O)[C@H]2CCCO2)C1 [Example 226]
  EC50: 100 to 1000 nM

## CCCOc1ccccc1C(=O)N1C[C@@H](N(C)C)C[C@H]1C(=O)Nc1ccc(/C=C/c2ccc(NC(=O)[C@@H]3C[C@H](N(C)C)CN3C(=O)c3ccccc3OCCC)cc2)cc1 [Example 227]
  EC50: 1000 to 10000 nM
